Test results as given in ChEMBL document CHEMBL1152001 (Bioorg Med Chem Lett, 1993).
pIC50: −log10 of the molar value. Non-standard residues stand in square brackets, D forms with d. Residues, ends and D or L forms follow the SMILES beside them. pGlu = O=C1CC[C@@H](C(=O)O)N1

What follows are compounds tested against Substance-P receptor (Rattus norvegicus, UniProt P14600) (assay: Tested for inhibition of tachykinin 1 (NK1) receptor in rat brain synaptosomal membranes using [125I]BH-SP as radioligand).
Substance-P receptor, sequence (P14600 whole entry): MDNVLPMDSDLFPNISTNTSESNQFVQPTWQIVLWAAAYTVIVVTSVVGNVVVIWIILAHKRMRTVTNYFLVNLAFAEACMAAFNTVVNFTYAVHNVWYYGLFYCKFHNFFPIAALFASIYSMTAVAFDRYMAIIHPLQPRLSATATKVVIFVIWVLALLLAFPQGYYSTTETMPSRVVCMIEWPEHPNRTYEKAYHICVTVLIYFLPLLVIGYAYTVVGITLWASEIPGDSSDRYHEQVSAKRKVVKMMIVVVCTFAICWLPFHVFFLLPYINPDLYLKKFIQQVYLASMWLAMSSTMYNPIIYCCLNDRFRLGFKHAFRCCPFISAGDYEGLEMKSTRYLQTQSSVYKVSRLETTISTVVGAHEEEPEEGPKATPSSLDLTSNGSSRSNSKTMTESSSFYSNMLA
Format: cell membranes, Membrane

pIC50	SMILES
8.64	CSCC[C@H](NC(=O)[C@H](CC(C)C)NC(=O)CNC(=O)[C@H](Cc1ccc(O)cc1)NC(=O)[C@H](Cc1ccccc1)NC(=O)[C@H](CCCCN)NC(=O)[C@H](CC(N)=O)NC(=O)[C@@H]1CCCN1C(=O)[C@H](CC(=O)O)NC(=O)[C@H](C)NC(=O)[C@@H]1CCC(=O)N1)C(N)=O ([pGlu]ADPNKFYGLM-NH2)
7.51	CC[C@H](C)[C@H](NC(=O)[C@H](Cc1ccccc1)NC(=O)[C@H](C)NC(=O)[C@H](CC(=O)O)NC(=O)[C@H](CCCCN)NC(=O)[C@H](CO)NC(=O)[C@@H]1CCCN1C(=O)[C@@H]1CCC(=O)N1)C(=O)NCC(=O)N[C@@H](CC(C)C)C(=O)N[C@@H](CCSC)C(N)=O ([pGlu]PSKDAFIGLM-NH2)
7.12	CSCC[C@H](NC(=O)[C@H](CC(C)C)NC(=O)CNC(=O)[C@@H](NC(=O)[C@H](Cc1ccccc1)NC(=O)[C@H](CCC(N)=O)NC(=O)[C@H](CC(=O)O)NC(=O)[C@H](CO)NC(=O)[C@H](CCCCN)NC(=O)[C@@H]1CCCN1C(=O)[C@@H](NC(=O)[C@@H](N)CC(=O)O)C(C)C)C(C)C)C(N)=O [KASSININ]
6.06	CSCC[C@H](NC(=O)[C@H](CC(C)C)NC(=O)CNC(=O)[C@@H](NC(=O)[C@H](Cc1ccccc1)NC(=O)[C@H](Cc1ccccc1)NC(=O)[C@H](CC(=O)O)NC(=O)[C@H](Cc1c[nH]cn1)NC(=O)[C@H](CCSC)NC(=O)[C@@H](N)CC(=O)O)C(C)C)C(N)=O [NEUROKININ B]
